# Data taken from US9573910B2, “Oxazolidinone antibacterial compound” (Lee Pharma Limited, priority 2013, dated 2017).
# Like-named read-outs stand apart in the source and are kept apart here.
# Columns and labels:
# [1] = test system: Stenotrophomonas maltophilia; assay: Agar plate assay, zone of growth inhibition; type: cell-based; details: for zone of inhibition at 50 µg/disc: Stenotrophomonas maltophilia, read-out: Zone of growth inhibition in mm; for Activity against S. maltophilia (in words): agar plate
# Description: To evaluate the same, 0 to 250 μg concentration range used for agar plate assay. Two percent agar plates were prepared and 24 hours grown S. maltophilia was spread on agar plate and incubated at 4° C. After 30 min, the agar plates consisting of S. maltophilia were brought to sterile environment at room temperature and using sterile borer wells were developed. […] After 24 hours of incubation at 37° C., the zone of inhibition was measured.
# M. luteus = type: cell-based
# B. sterothemophilus = type: cell-based
# S. maltophilla = type: cell-based
# P. putida = type: cell-based
# K. pneumonia = type: cell-based
# P. aeruginosa = type: cell-based
# E. coli = type: cell-based
# P. vulgaris = type: cell-based
# S. typhi = type: cell-based
# B. subtilis = type: cell-based
# S. mutans = type: cell-based
# B. sphaericus = type: cell-based
# B. circulans = type: cell-based
# Lysinobacillus = type: cell-based
# B. cereus (1) = type: cell-based
# B. megatherium = type: cell-based
# B. cereus (2) = type: cell-based
# P. mirabilis = type: cell-based
# B. cereus (3) = type: cell-based
# S. maltophilia = assay: Susceptibility test profile for commercially available antibiotics; type: cell-based, Stenotrophomonas maltophilia
# Description: Anti bacterial evaluation of compound-I was done against Stenotrophomonas maltophilia on following parameters— • f. Agar-plate assay for different concentrations (10, 50, 100, 150 μg) • g. MIC studies • 1. With different concentrations (1000 to 5 μg/ml-˜10 different concentrations) • 2. Different time periods (4 to 32 hrs—8 different time intervals) • h. Mode of action with relation to survivability of organism • 1. Cidal/static with concentration and incubation time based) • 2. Evaluation by colony counting/dye based • i. Susceptibility test (evaluation of >40 antibiotics of different nature) • j. Antibacterial potential studies with other infectious bacteria (˜20 different strains) Results Agar-Plate Assay
# Susceptibility Test Profile of S. maltophilia for Different Antibiotics (FIG. 10)
compound,measurement,setting,value
CC(=O)NC[C@H]1CN(c2ccc(N3CCOCC3)c(F)c2)C(=O)O1 [Linezolid],zone of inhibition at 50 µg/disc,"[1]; S. maltophilia, agar plates, 50 μg of each compound dissolved in DMSO",0 mm
same,Activity against S. maltophilia (in words),[1],not inhibitory
same,Zone of growth inhibition in mm,M. luteus,45 mm
same,Zone of growth inhibition in mm,B. sterothemophilus,00 mm
same,Zone of growth inhibition in mm,S. maltophilla,00 mm
same,Zone of growth inhibition in mm,P. putida,00 mm
same,Zone of growth inhibition in mm,K. pneumonia,35 mm
same,Zone of growth inhibition in mm,P. aeruginosa,00 mm
same,Zone of growth inhibition in mm,E. coli,35 mm
same,Zone of growth inhibition in mm,P. vulgaris,00 mm
same,Zone of growth inhibition in mm,S. typhi,40 mm
same,Zone of growth inhibition in mm,B. subtilis,40 mm
same,Zone of growth inhibition in mm,S. mutans,40 mm
same,Zone of growth inhibition in mm,B. sphaericus,30 mm
same,Zone of growth inhibition in mm,B. circulans,38 mm
same,Zone of growth inhibition in mm,Lysinobacillus,40 mm
same,Zone of growth inhibition in mm,B. cereus (1),00 mm
same,Zone of growth inhibition in mm,B. megatherium,37 mm
same,Zone of growth inhibition in mm,B. cereus (2),35 mm
same,Zone of growth inhibition in mm,P. mirabilis,35 mm
same,Zone of growth inhibition in mm,B. cereus (3),45 mm
same,Zone of growth inhibition in mm,S. paratyphi,00 mm
O=C1OCCN1/N=C/c1ccc([N+](=O)[O-])o1 [Furazolidone],Zone (mm),S. maltophilia; Quantity 50 μg,Resistant
CN[C@H](CC(C)C)C(=O)N[C@H]1C(=O)N[C@@H](CC(N)=O)C(=O)N[C@H]2C(=O)N[C@H]3C(=O)N[C@H](C(=O)N[C@H](C(=O)O)c4cc(O)cc(O)c4-c4cc3ccc4O)[C@H](O)c3ccc(c(Cl)c3)Oc3cc2cc(c3O[C@@H]2O[C@H](CO)[C@@H](O)[C@H](O)[C@H]2O[C@H]2C[C@](C)(N)[C@H](O)[C@H](C)O2)Oc2ccc(cc2Cl)[C@H]1O [Vancomycin],zone of inhibition at 50 µg/disc,[1],0 mm
same,Activity against S. maltophilia (in words),[1],not inhibitory
same,Zone of growth inhibition in mm,M. luteus,32 mm
same,Zone of growth inhibition in mm,B. sterothemophilus,00 mm
same,Zone of growth inhibition in mm,S. maltophilla,00 mm
same,Zone of growth inhibition in mm,P. putida,00 mm
same,Zone of growth inhibition in mm,K. pneumonia,25 mm
same,Zone of growth inhibition in mm,P. aeruginosa,00 mm
same,Zone of growth inhibition in mm,E. coli,25 mm
same,Zone of growth inhibition in mm,P. vulgaris,00 mm
same,Zone of growth inhibition in mm,S. typhi,14 mm
same,Zone of growth inhibition in mm,B. subtilis,25 mm
same,Zone of growth inhibition in mm,S. mutans,30 mm
same,Zone of growth inhibition in mm,B. sphaericus,12 mm
same,Zone of growth inhibition in mm,B. circulans,27 mm
same,Zone of growth inhibition in mm,Lysinobacillus,30 mm
same,Zone of growth inhibition in mm,B. cereus (1),00 mm
same,Zone of growth inhibition in mm,B. megatherium,27 mm
same,Zone of growth inhibition in mm,B. cereus (2),27 mm
same,Zone of growth inhibition in mm,P. mirabilis,27 mm
same,Zone of growth inhibition in mm,B. cereus (3),32 mm
same,Zone of growth inhibition in mm,S. paratyphi,25 mm
"CCN[C@@H]1C[C@H](N)[C@@H](O[C@H]2OC(CN)=CC[C@H]2N)[C@H](O)[C@H]1O[C@H]1OC[C@](C)(O)[C@H](NC)[C@H]1O.CCN[C@@H]1C[C@H](N)[C@@H](O[C@H]2OC(CN)=CC[C@H]2N)[C@H](O)[C@H]1O[C@H]1OC[C@](C)(O)[C@H](NC)[C@H]1O.O=S(=O)(O)O.O=S(=O)(O)O.O=S(=O)(O)O.O=S(=O)(O)O.O=S(=O)(O)O [Netillin(Netilmicin sulphate), Netilmicin sulphate]",Zone (mm),S. maltophilia; Quantity 30 μg,7 mm
Gentamicin,Zone (mm),S. maltophilia; Quantity 10 μg,7 mm
Teicoplanin,Zone (mm),S. maltophilia; Quantity 30 μg,4 mm
CCn1cc(C(=O)O)c(=O)c2ccc(C)nc21 [Nalidixic],Zone (mm),S. maltophilia; Quantity 30 μg,7 mm
CCC[C@@H]1C[C@@H](C(=O)N[C@@H]([C@H]2O[C@H](SC)[C@H](O)[C@@H](O)[C@H]2O)[C@@H](C)O)N(C)C1 [Lincomycin],Zone (mm),S. maltophilia; Quantity 2 μg,Resistant
CC[C@H]1OC(=O)[C@H](C)[C@@H](O[C@H]2C[C@@](C)(OC)[C@@H](O)[C@H](C)O2)[C@H](C)[C@@H](O[C@@H]2O[C@H](C)C[C@H](N(C)C)[C@H]2O)[C@](C)(OC)C[C@@H](C)C(=O)[C@H](C)[C@@H](O)[C@]1(C)O [Clarithromycin],Zone (mm),S. maltophilia; Quantity 15 μg,Resistant
Penicillin,Zone (mm),S. maltophilia; Quantity 10 μg,6 mm
